Test results reported in patent US8637467B2, “Pharmaceutical being used for treating cancer and fibrosis disease and the composition and uses thereof” (Wuxi MTLH Biotechnology Co., Ltd., priority 2008, dated 2014).
Where no end group is shown, it is not given here.

Tests used:
[1] = test system: human stomach cancer SGC-7901; test: Human stomach cancer SGC-7901 xenograph nude mice; type: in vivo; details: 0.125 mg/kg IV, 6 times a week, 3 weeks
Procedure: (§1) Experimental animals: Female BALB/cA nude mice, age 35-40 days, weight 18-22 g, provided by Shanghai Silaike Experimental Animal Co. Ltd., certificate number: SOCK (Shanghai) 2007-0005.
(§2) The tumor of xenograph nude mice grew to 100˜300 mm^3. Tumor mice were divided into different groups for drug testing. In the experiment below, there were 12 nude mice in negative control group, and 6 nude mice in the group with tested drug. Tumor diameter was measured three times each week, and mice weight was measured at the same time.
(§3) T/C (relative tumor inhibition rate) % was calculated as below: • (1) tumor volume, TV, calculated as below: TV=½×a×b^2 • A and b are length and width. • (2) relative tumor volume, RTV, calculated as below: RTV=TVt/TV0. • TV0 ? is tumor volume at the beginning of drug use (d0), TVt is tumor volume at later time point. • (3) relative tumor inhibition rate T/C (%), calculate as below:
(§4) [formula] TRTV: treatment group RTV; CRTV: negative control RTV
Peptide SEQ ID No:1 was given through tail vain (IV), at dosing of 1 mg/kg, 0.5 mg/kg, 0.25 mg/kg, 0.125 mg/kg, and 0.0625 mg/kg, 6 times a week. 5-FU was positive control, at dosing of 25 mg/kg, once a week. Negative control was given saline solution. The xenograph nude mice were treated for 3 weeks.

[2] = test system: human breast cancer MDA-MB-435; test: Human breast cancer MDA-MB-435 xenograph nude mice; type: in vivo; details: 0.5 mg/kg IV, 6 times a week, 4 weeks
Procedure: as §1, §2, §3, §4
Peptide SEQ ID No:1 was given through tail vein (IV), at dosing of 2 mg/kg, 1 mg/kg, 0.5 mg/kg, 6 times a week. Docetaxol was positive control, at dosing of 20 mg/kg, once a week. Negative control was given saline solution. The xenograph nude mice were treated for 4 weeks.

[3] = test system: human lung cancer A549; test: Human lung cancer A549 xenograph nude mice; type: in vivo; details: 6 times a week, 3 weeks
Procedure: as §1, §2, §3, §4
Peptide SEQ ID No:1 was given through tail vein (IV), at dosing of 0.5 mg/kg, 0.25 mg/kg, and 0.125 mg/kg, 6 times a week. Docetaxol was positive control, at dosing of 20 mg/kg, once a week. Negative control was given saline solution. The xenograph nude mice were treated for 3 weeks.

[4] = test system: phosphorylation of Erk1/2; test: Western blot, PDGFR intracellular Ras-Raf signaling pathway in HUVEC; type: cell-based, Human; details: 6 hours, 10 ug/ml (2 uM)
Procedure: Various concentration of Peptide SEQ ID No:1 was incubated with Human Umbilical Vein Endothelial Cells (HUVEC) cells for 6 hours. Protein was extracted from these cells and western blot was performed. Antibody for p-stat1: Antibody against phophorylated-Tyr701; Antibody for p-MEK1/2: Antibody against phophorylated-Ser217/221 peptide; Antibody for p-Erk1/2: Antibody against phophorylated-Ser202/204. beta-Actin was a control to make sure all lanes are loaded with same amount of protein.

Question: With “SKVTKKYHEVLQLRPKTGVRGLHKSLTDVALEHHEECDCVCRGSTGG-OH (cysteines drawn unpaired) [Peptide SEQ ID NO:1]” as the substance, how does the “T/C(%) relative tumor inhibition rate” value [1] read?
Answer: 47.66%

Question: And the “T/C(%) relative tumor inhibition rate” value [2]?
Answer: 49.40%

Question: And the “T/C(%) relative tumor inhibition rate” value ([3]; 0.125 mg/kg IV)?
Answer: 48.96%

Question: What about the “T/C(%) relative tumor inhibition rate” value ([3]; 0.25 mg/kg IV) of the same substance?
Answer: 47.98%

Question: What about the “phosphorylation of Erk1/2 (western blot)” value [4] of the same substance?
Answer: significantly inhibits phosphorylation of Erk1/2
